Data reported in BigSolDB 2.1.

## CC(=O)Oc1ccc(C2CC(=O)c3c(OC(C)=O)cc(OC(C)=O)cc3O2)cc1 (stereo not given)
In 2-butoxyethanol, 278.2 K
  solubility (mole fraction): 0.0018
In 2-butoxyethanol, 288.2 K
  solubility (mole fraction): 0.00253
In 2-butoxyethanol, 298.2 K
  solubility (mole fraction): 0.00337
In 2-butoxyethanol, 308.2 K
  solubility (mole fraction): 0.00476
In 2-butoxyethanol, 318.2 K
  solubility (mole fraction): 0.00712
In 2-methoxyethanol, 278.2 K
  solubility (mole fraction): 0.00836
In 2-methoxyethanol, 288.2 K
  solubility (mole fraction): 0.0108
In 2-methoxyethanol, 298.2 K
  solubility (mole fraction): 0.0174
In 2-methoxyethanol, 308.2 K
  solubility (mole fraction): 0.0235
In 2-methoxyethanol, 318.2 K
  solubility (mole fraction): 0.0356
In 2-propoxyethanol, 278.2 K
  solubility (mole fraction): 0.00485
In 2-propoxyethanol, 288.2 K
  solubility (mole fraction): 0.00629
In 2-propoxyethanol, 298.2 K
  solubility (mole fraction): 0.00775
In 2-propoxyethanol, 308.2 K
  solubility (mole fraction): 0.00887
In 2-propoxyethanol, 318.2 K
  solubility (mole fraction): 0.0116
In THF, 278.2 K
  solubility (mole fraction): 0.0413
In THF, 288.2 K
  solubility (mole fraction): 0.0483
In THF, 298.2 K
  solubility (mole fraction): 0.058
In THF, 308.2 K
  solubility (mole fraction): 0.0732
In THF, 318.2 K
  solubility (mole fraction): 0.0902
In acetone, 278.2 K
  solubility (mole fraction): 0.0759
In acetone, 288.2 K
  solubility (mole fraction): 0.0869
In acetone, 298.2 K
  solubility (mole fraction): 0.11
In acetone, 308.2 K
  solubility (mole fraction): 0.129
In acetone, 318.2 K
  solubility (mole fraction): 0.166
In ethanol, 278.2 K
  solubility (mole fraction): 0.000721
In ethanol, 288.2 K
  solubility (mole fraction): 0.000931
In ethanol, 298.2 K
  solubility (mole fraction): 0.00132
In ethanol, 308.2 K
  solubility (mole fraction): 0.00175
In ethanol, 318.2 K
  solubility (mole fraction): 0.00239
In ethyl acetate, 278.2 K
  solubility (mole fraction): 0.022
In ethyl acetate, 288.2 K
  solubility (mole fraction): 0.034
In ethyl acetate, 298.2 K
  solubility (mole fraction): 0.045
In ethyl acetate, 308.2 K
  solubility (mole fraction): 0.0714
In ethyl acetate, 318.2 K
  solubility (mole fraction): 0.103
In isopropanol, 278.2 K
  solubility (mole fraction): 0.000289
In isopropanol, 288.2 K
  solubility (mole fraction): 0.000426
In isopropanol, 298.2 K
  solubility (mole fraction): 0.000667
In isopropanol, 308.2 K
  solubility (mole fraction): 0.00102
In isopropanol, 318.2 K
  solubility (mole fraction): 0.00152
In methanol, 278.2 K
  solubility (mole fraction): 0.00122
In methanol, 288.2 K
  solubility (mole fraction): 0.00155
In methanol, 298.2 K
  solubility (mole fraction): 0.00217
In methanol, 308.2 K
  solubility (mole fraction): 0.00289
In methanol, 318.2 K
  solubility (mole fraction): 0.00407
In n-butanol, 278.2 K
  solubility (mole fraction): 0.000228
In n-butanol, 288.2 K
  solubility (mole fraction): 0.000353
In n-butanol, 298.2 K
  solubility (mole fraction): 0.000491
In n-butanol, 308.2 K
  solubility (mole fraction): 0.000752
In n-butanol, 318.2 K
  solubility (mole fraction): 0.00106
In n-hexanol, 278.2 K
  solubility (mole fraction): 1.8e-05
In n-hexanol, 288.2 K
  solubility (mole fraction): 2.4e-05
In n-hexanol, 298.2 K
  solubility (mole fraction): 3e-05
In n-hexanol, 308.2 K
  solubility (mole fraction): 4.6e-05
In n-hexanol, 318.2 K
  solubility (mole fraction): 6.4e-05
In n-pentanol, 278.2 K
  solubility (mole fraction): 0.000249
In n-pentanol, 288.2 K
  solubility (mole fraction): 0.000402
In n-pentanol, 298.2 K
  solubility (mole fraction): 0.000556
In n-pentanol, 308.2 K
  solubility (mole fraction): 0.00101
In n-pentanol, 318.2 K
  solubility (mole fraction): 0.00141
In n-propanol, 278.2 K
  solubility (mole fraction): 0.000649
In n-propanol, 288.2 K
  solubility (mole fraction): 0.000873
In n-propanol, 298.2 K
  solubility (mole fraction): 0.00127
In n-propanol, 308.2 K
  solubility (mole fraction): 0.00165
In n-propanol, 318.2 K
  solubility (mole fraction): 0.00245
In sec-butanol, 278.2 K
  solubility (mole fraction): 0.000216
In sec-butanol, 288.2 K
  solubility (mole fraction): 0.000372
In sec-butanol, 298.2 K
  solubility (mole fraction): 0.000507
In sec-butanol, 308.2 K
  solubility (mole fraction): 0.000824
In sec-butanol, 318.2 K
  solubility (mole fraction): 0.00122
